Test results taken from paper PMC10006169, “A phase I trial of LXS196, a protein kinase C (PKC) inhibitor, for metastatic uveal melanoma” (British Journal of Cancer, 2023).

Assays:
[1] = system: MARCKS (pMARCKS); test: pMARCKS in tumour biopsies (Meso Scale Discovery); format: in vivo, human; details: QD schedule
Source text: Fresh metastatic tumour biopsies were collected at baseline (prior to first dose) and on treatment at C1D15 to evaluate the modulation of PKC substrate proteins in tumours following exposure to LXS196 and to perform exploratory transcriptome and targeted DNA sequencing. Whole blood samples (peripheral blood mononuclear cells; PBMCs) were collected pre-dose on C1D1 and D15, and at various time points post-dose on C1D1, D2, D3, D15 and D16 to evaluate the modulation of PKC substrate proteins in a surrogate tissue. Owing to the exploratory nature of this phase I study, formal statistical tests were not planned to be performed. Data are presented using descriptive statistics and visualisations. Continuous variables are described with the mean and range. […]
Custom assays were developed to measure the status of the PKC pathway. In brief, tumour tissue was homogenised in lysis buffer, and total protein concentrations were determined using a bicinchoninic acid (BCA) assay (Pierce). […] Total and phosphorylated PKCdelta (PKCd; pPKCd, phosphorylated at S299) levels were determined using microcapillary electrophoresis on the Sally Sue platform (Protein Simple, San Jose, CA, USA). Area under the peaks corresponding to the target was measured and used for further calculation. […]
Total and phosphorylated MARCKS were measured in all feasible tumour biopsies. […] The normalised MARCKS is calculated as follows: […]

[2] = system: UM cell lines containing mutant GNAQ or GNA11; details: cited from earlier work

Structure (SMILES): CC1(N)CCN(c2cccnc2NC(=O)c2nc(-c3ncccc3C(F)(F)F)cnc2N)CC1 [LXS196]
- pMARCKS, mean (range) percentage change from baseline to C1D15 (normalised ratio) [1]: −39.7 (−89.7, 199) %
- Cellular activity [2]: cellular activity restricted to UM cell lines containing mutant GNAQ or GNA11
